Test results as given in the supplement of paper PMC11061612.

What was measured:
[1] = compound: Cc1cc2ncnn2cc1Nc1ncc2c(n1)n(C1CCOCC1)c(=O)n2C [AZD7648]; conditions: max 10 µM
Method in brief: (§1)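 Cancer cell lines were seeded into 1536-well plates in 7.5 μl medium (DMEM/F12 or RPMI, 10% FBS), held 24 hours at 37°C and 5% CO2, and dosed for 72 hours with final DMSO typically 0.2%. Luminescence from CellTiter-Glo 2.0, scaled between blank-well and DMSO-well means, served as viability. The single-agent IC50 was obtained from dose-response fits with a non-linear mixed effects model, each fit being a two-parameter logistic curve.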

[2] = compound: CC(C)n1c(=O)n(C)c2cnc3cc(F)c(-c4ccc(OCCCN5CCCCC5)nc4)cc3c21 [AZD1390]; conditions: max 0.3 µM
Method in brief: as §1

[3] = compound: CC1=C(C(=CC=C1)Cl)NC(=O)C2=CN=C(S2)NC3=CC(=NC(=N3)C)N4CCN(CC4)CCO [Dasatinib]; conditions: max 2 µM
Method in brief: as §1

[4] = compound: COc1nnc2ccc(N3CCC(c4ccc(OCCN5CCN(C)C(=O)[C@H]5C)cc4)CC3)nn12 [AZD5153]; conditions: max 1 µM
Method in brief: as §1

[5] = compound: COc1cccc(OCCCN)c1-c1cc(Nc2cnc(C#N)cn2)n[nH]1 [Prexasertib]; conditions: max 1 µM
Method in brief: as §1

[6] = compound: CN(C)CCCOc1ccc(-c2ccc3ncc4c(c3c2)n(C2CCOCC2)c(=O)n4C)cn1 [AZD0156]; conditions: max 3 µM
Method in brief: as §1

[7] = compound: COc1cc2ncnc(Nc3ccc(F)c(Cl)c3)c2cc1OCCCN1CCOCC1 [Gefitinib]; conditions: max 10 µM
Method in brief: as §1

[8] = compound: CCN(CCO)CCCOc1ccc2c(Nc3cc(CC(=O)Nc4cccc(F)c4)[nH]n3)ncnc2c1 [AZD2811]; conditions: max 1 µM
Method in brief: as §1

[9] = compound: Cn1cnc2c(F)c(Nc3ccc(Br)cc3Cl)c(C(=O)NOCCO)cc21 [Selumetinib]
Method in brief: as §1

[10] = compound: CS(=O)(=O)CCNCc1ccc(-c2ccc3ncnc(Nc4ccc(OCc5cccc(F)c5)c(Cl)c4)c3c2)o1 [Lapatinib]; conditions: max 10 µM
Method in brief: as §1

[11] = compound: CC(=O)Nc1cccc(-n2c(=O)n(C3CC3)c(=O)c3c(Nc4ccc(I)cc4F)n(C)c(=O)c(C)c32)c1 [Trametinib]; conditions: max 1 µM
Method in brief: as §1

[12] = compound: C=CCn1c(=O)c2cnc(Nc3ccc(N4CCN(C)CC4)cc3)nc2n1-c1cccc(C(C)(C)O)n1 [AZD1775]; conditions: max 3 µM
Method in brief: as §1

[13] = compound: C1CN(CCC1(C(=O)N[C@@H](CCO)C2=CC=C(C=C2)Cl)N)C3=NC=NC4=C3C=CN4 [Capivasertib]
Method in brief: as §1

[14] = compound: CN(CC[C@H](CSC1=CC=CC=C1)NC2=C(C=C(C=C2)S(=O)(=O)NC(=O)C3=CC=C(C=C3)N4CCC(CC4)[C@H](C5=CC=CC=C5C6=CC=C(C=C6)Cl)O)S(=O)(=O)C(F)(F)F)CCO [AZD4320]; conditions: max 1 µM
Method in brief: as §1

[15] = compound: COc1cccc2c1C(=O)c1c(O)c3c(c(O)c1C2=O)C[C@@](O)(C(=O)CO)C[C@@H]3O[C@H]1C[C@H](N)[C@H](O)[C@H](C)O1 [Doxorubicin]; conditions: max 1 µM
Method in brief: as §1

[16] = compound: COc1cc(Nc2ncc3c(n2)-c2ccc(Cl)cc2C(c2c(F)cccc2OC)=NC3)ccc1C(=O)O [Alisertib]; conditions: max 10 µM
Method in brief: as §1

[17] = compound: C[C@@H](Oc1cc(-c2cnn(C3CCNCC3)c2)cnc1N)c1c(Cl)ccc(F)c1Cl [Crizotinib]; conditions: max 10 µM
Method in brief: as §1

[18] = compound: C[C@@H](Nc1cc(F)cc(F)c1)c1cc(C(=O)N(C)C)cc2c(=O)cc(N3CCOCC3)oc12 [AZD8186]
Method in brief: as §1

[19] = compound: O=C(c1cc(Cc2n[nH]c(=O)c3ccccc23)ccc1F)N1CCN(C(=O)C2CC2)CC1 [Olaparib]; conditions: max 10 µM
Method in brief: as §1

[20] = compound: CCc1c2c(nc3ccc(O)cc13)-c1cc3c(c(=O)n1C2)COC(=O)[C@]3(O)CC [SN-38]; conditions: max 0.3 µM
Method in brief: as §1

[21] = compound: CC1=CN2[C@@H](C1)C=NC3=CC(=C(C=C3C2=O)OC)OCCCCCOC4=C(C=C5C(=C4)N=C[C@@H]6CC(=CN6C5=O)C)OC [SG3199]; conditions: max 0.001 µM
Method in brief: as §1

[22] = compound: Cc1c2c(nn1C)CSCc1cc(n(C)n1)CSc1cc(c3ccccc3c1)OCCCc1c(C(=O)O)n(C)c3c-2c(Cl)ccc13 [AZD5991]; conditions: max 1 µM
Method in brief: as §1

[23] = compound: C[C@@H](c1ccc2nccn2c1)n1nnc2ncc(-c3cnn(C)c3)nc21 [Savolitinib]; conditions: max 1 µM
Method in brief: as §1

[24] = compound: CC(=O)c1c(C)c2cnc(Nc3ccc(N4CCNCC4)cn3)nc2n(C2CCCC2)c1=O [Palbociclib]; conditions: max 10 µM
Method in brief: as §1

[25] = compound: CC1(C)CCC(CN2CCN(c3ccc(C(=O)NS(=O)(=O)c4ccc(NCC5CCOCC5)c([N+](=O)[O-])c4)c(Oc4cnc5[nH]ccc5c4)c3)CC2)=C(c2ccc(Cl)cc2)C1 [Venetoclax]; conditions: max 1 µM
Method in brief: as §1

[26] = compound: Cc1nc(-c2cn3c(n2)-c2ccc(-c4cnn(C(C)(C)C(N)=O)c4)cc2OCC3)n(C(C)C)n1 [Taselisib]; conditions: max 10 µM
Method in brief: as §1

[27] = compound: C[C@@H]1COCCN1C2=NC(=NC(=C2)C3(CC3)[S@](=N)(=O)C)C4=C5C=CNC5=NC=C4 [AZD6738]; conditions: max 10 µM
Method in brief: as §1

[28] = compound: O=c1[nH]cc(F)c(=O)[nH]1 [5-Fluorouracil]; conditions: max 20 µM
Method in brief: as §1

[29] = compound: C1CC(C1)(C(=O)[O-])C(=O)[O-].N.N.[Pt+2] [Carboplatin]; conditions: max 10 µM
Method in brief: as §1

[30] = compound: Nc1ccn([C@@H]2O[C@H](CO)[C@@H](O)C2(F)F)c(=O)n1 [Gemcitabine]; conditions: max 0.3 µM
Method in brief: as §1

[31] = compound: C1CN(CCC1(C(=O)N[C@@H](CCO)C2=CC=C(C=C2)Cl)N)C3=NC=NC4=C3C=CN4 [AZD5363]; conditions: max 10 µM
Method in brief: as §1

[32] = compound: NC1(c2ccc(-c3nc4ccn5c(=O)[nH]nc5c4cc3-c3ccccc3)cc2)CCC1 [MK-2206]; conditions: max 10 µM
Method in brief: as §1

[33] = compound: COc1cc([C@@H]2c3cc4c(cc3[C@@H](O[C@@H]3O[C@@H]5CO[C@@H](C)O[C@H]5[C@H](O)[C@H]3O)[C@H]3COC(=O)[C@H]23)OCO4)cc(OC)c1O [Etoposide]; conditions: max 10 µM
Method in brief: as §1

[34] = compound: N#Cc1cnc(Nc2cc(NC[C@H]3CNCCO3)c(C(F)(F)F)cn2)cn1 [SRA737]; conditions: max 10 µM
Method in brief: as §1

[35] = compound: O=C(Nc1ccc2[nH]nc(-c3ccncc3)c2c1)[C@@H]1CCN(CC(=O)N2CCN(c3ccc(-c4ncccn4)cc3)CC2)C1; conditions: max 5 µM
Method in brief: as §1

[36] = compound: CC(=O)O[C@H]1C(=O)[C@@]2(C)[C@H]([C@H](OC(=O)c3ccccc3)[C@]3(O)C[C@H](OC(=O)[C@H](O)[C@@H](NC(=O)c4ccccc4)c4ccccc4)C(C)=C1C3(C)C)[C@]1(OC(C)=O)CO[C@@H]1C[C@@H]2O [Paclitaxel]; conditions: max 3 µM
Method in brief: as §1

Cell Line	IC50, cell viability 72 h [1]	IC50, cell viability 72 h [2]	IC50, cell viability 72 h [3]	IC50, cell viability 72 h [4]	IC50, cell viability 72 h [5]	IC50, cell viability 72 h [6]	IC50, cell viability 72 h [7]	IC50, cell viability 72 h [8]	IC50, cell viability 72 h ([9]; max 10 µM)	IC50, cell viability 72 h [10]	IC50, cell viability 72 h [11]	IC50, cell viability 72 h [12]	IC50, cell viability 72 h ([13]; max 10 µM)	IC50, cell viability 72 h [14]	IC50, cell viability 72 h [15]	IC50, cell viability 72 h [16]	IC50, cell viability 72 h [17]	IC50, cell viability 72 h ([18]; max 3 µM)	IC50, cell viability 72 h [19]	IC50, cell viability 72 h [20]	IC50, cell viability 72 h [21]	IC50, cell viability 72 h [22]	IC50, cell viability 72 h [23]	IC50, cell viability 72 h [24]	IC50, cell viability 72 h [25]	IC50, cell viability 72 h [26]	IC50, cell viability 72 h [27]	IC50, cell viability 72 h ([9]; max 3 µM)	IC50, cell viability 72 h ([13]; max 3 µM)	IC50, cell viability 72 h [28]	IC50, cell viability 72 h [29]	IC50, cell viability 72 h [30]	IC50, cell viability 72 h [31]	IC50, cell viability 72 h ([18]; max 10 µM)	IC50, cell viability 72 h [32]	IC50, cell viability 72 h [33]	IC50, cell viability 72 h [34]	IC50, cell viability 72 h [35]	IC50, cell viability 72 h [36]
C-4-I (Cervical Carcinoma)	> 10 µM	> 0.3 µM	> 2 µM	0.889 µM	0.0185 µM	> 3 µM	> 10 µM	> 1 µM	> 10 µM	7.23 µM	0.773 µM	0.195 µM	> 10 µM	> 1 µM	0.302 µM	3.42 µM	> 10 µM	> 3 µM	> 10 µM	0.041 µM	> 0.001 µM	0.288 µM	> 1 µM	> 10 µM	> 1 µM	2.55 µM	2.52 µM												
HOP-62 (Lung Adenocarcinoma)	> 10 µM	> 0.3 µM	0.956 µM	0.243 µM	0.225 µM	> 3 µM	> 10 µM	> 1 µM	8.92 µM	> 10 µM	0.2 µM	> 3 µM	> 10 µM	> 1 µM	> 1 µM	8.66 µM	> 10 µM	> 3 µM	> 10 µM	0.101 µM	> 0.001 µM	> 1 µM	> 1 µM	> 10 µM	> 1 µM	> 10 µM	> 10 µM												
JVM-3 (B-Cell Non-Hodgkin's Lymphoma)	> 10 µM				0.00734 µM	> 3 µM		> 1 µM			0.27 µM	0.117 µM		0.0809 µM	0.0843 µM	1.6 µM		> 3 µM	> 10 µM	0.00205 µM	> 0.001 µM	> 1 µM			> 1 µM	1.61 µM	4.32 µM	1.98 µM	> 3 µM										
KMOE-2 (Acute Myeloid Leukemia)	> 10 µM	> 0.3 µM	> 2 µM	0.102 µM	0.0558 µM	> 3 µM	> 10 µM	> 1 µM	0.104 µM	> 10 µM	0.00174 µM	0.411 µM	> 10 µM	0.409 µM	0.881 µM	0.465 µM	> 10 µM	> 3 µM	> 10 µM	0.04 µM	> 0.001 µM	0.773 µM	> 1 µM	> 10 µM	> 1 µM	9.87 µM	8.12 µM												
SW13 (Other Solid Carcinomas)	> 10 µM	> 0.3 µM	1.25 µM	> 1 µM	> 1 µM	> 3 µM	> 10 µM	> 1 µM	> 10 µM	4.46 µM	0.804 µM	> 3 µM		> 1 µM	0.394 µM	> 10 µM	> 10 µM		> 10 µM	0.00519 µM	> 0.001 µM	0.212 µM	> 1 µM	> 10 µM	> 1 µM	> 10 µM	> 10 µM			> 20 µM	> 10 µM	0.0271 µM	> 10 µM	> 10 µM	> 10 µM	4.89 µM	> 10 µM	> 5 µM	0.00609 µM
